From PMC6514812, “[^18F]Fluoroethyltriazolyl Monocyclam Derivatives as Imaging Probes for the Chemokine Receptor CXCR4” (Molecules, 2019)

Assays:
CXCR4 [1] = molecular target: T1, CXCR4 (Homo sapiens, UniProt P61073); assay: Saturation binding assay in PC3-CXCR4 cells; settings: for Kd: saturation binding, PC3-CXCR4 cells; for Hill Slope, Saturation Binding Experiment: value ± SD
T1 construct: expressed in transfected cells; host or cells: PC3 (human prostate cancer) cells stably transduced with CXCR4
T1 sequence (P61073 whole entry): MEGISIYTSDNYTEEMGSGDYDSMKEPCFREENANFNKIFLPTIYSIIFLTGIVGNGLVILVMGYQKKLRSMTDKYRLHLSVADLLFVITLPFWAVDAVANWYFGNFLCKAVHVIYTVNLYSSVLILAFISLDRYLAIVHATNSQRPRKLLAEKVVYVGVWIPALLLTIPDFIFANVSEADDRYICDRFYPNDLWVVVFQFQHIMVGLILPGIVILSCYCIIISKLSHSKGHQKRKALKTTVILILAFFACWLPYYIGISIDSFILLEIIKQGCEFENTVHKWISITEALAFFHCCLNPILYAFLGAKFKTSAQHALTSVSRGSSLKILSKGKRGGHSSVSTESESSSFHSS
Method: To determine the dissociation constants, saturation binding assays were performed in the PC3-CXCR4 cells. The cells were plated as described above, and approximately 5 nM of the radioligand was added to each well. Then the corresponding non-radioactive ligand was added to give a final concentration in the range 0.001–10,000 nM. A total of eight concentrations were tested, and each concentration was tested in triplicate. The samples were washed and counted as described above. Non-specific binding was subtracted, and Kd values were determined by performing a nonlinear one site binding curve fit with equation y = (Bmax · x)/(Kd + x). Values are expressed as Kd ± standard deviation (Supplemental Data, Figure S8).

CXCR4 [2] = molecular target: T1, CXCR4; assay: Competition binding assay vs [^18F]RPS-544 in PC3-CXCR4 cells; settings: approx. 5 pM [^18F]RPS-544; p = 0.85
Method: (§1) PC3-CXCR4 cells were plated in 12-well plates at a density of 500,000 cells per well and incubated for 48 h at 37 °C/5% CO2. Prior to the binding assay the cells were incubated in fresh media and 370–555 kBq of [^68Ga]Pentixafor or [^18F]RPS-544 was added to each well. The corresponding concentration of [^68Ga]Pentixafor in each well was 100 nM, and the concentration of [^18F]RPS-544 was approximately 5 pM. Then non-radioactive ligands were added to give a final ligand concentration in the range 0.001–10,000 nM. A total of eight concentrations were studied, and each concentration was tested in triplicate. The cells were incubated for 60 min at 37 °C/5% CO2. The media was removed under suction, the cells were washed with cold PBS 1X and detached and transferred to tubes for counting in 1 M NaOH. The cells were counted in a Wizard^2 Gamma Counter (PerkinElmer, Waltham, MA, USA). Non-specific binding was subtracted, and the IC50 values were determined by assuming a simple competitive binding interaction and fitting the data to a sigmoidal Hill plot in Origin 9.0 (OriginLab, Northampton, MA, USA). Potencies are expressed as IC50 ± standard deviation (Supplemental Data, Figure S7).

PC3-CXCR4 cells = assay: Cell-associated activity in PC3-CXCR4 cells; format: cell-based, human; settings: 1 h
Method: Maximum cell-associated activity was calculated by subtracting the cell uptake of the radioactive ligand at the highest non-radioactive ligand concentration of 10 µM (which we considered to be non-specific uptake/binding) from the cell uptake at the lowest non-radioactive ligand concentration of 10^−5 µM.

CXCR4 [3] = molecular target: T1, CXCR4; assay: Competition binding assay vs [^68Ga]Pentixafor in PC3-CXCR4 cells; settings: for IC50: vs 100 nM [^68Ga]Pentixafor, PC3-CXCR4 cells, 60 min 37 °C; for Hill Slope, Competitive Binding Experiment: vs [^68Ga]Pentixafor, value ± SD
Method: as §1

[4] = tested on: PC3-CXCR4 xenograft tumors; assay: Biodistribution in mice bearing bilateral PC3-WT/PC3-CXCR4 xenograft tumors; format: in vivo, BALB/c mice; settings: 1 h p.i.
Method: (§2) All animal studies were approved by the Institutional Animal Care and Use Committee of Weill Cornell Medicine (Protocol Number: 2015-0066) and were undertaken in accordance with the guidelines set forth by the USPHS Policy on Humane Care and Use of Laboratory Animals. Animals were housed under standard conditions in approved facilities with 12 h light/dark cycles. Food and water was provided ad libitum throughout the course of the studies. Hairless 6-to-8-week old male BALB/c inbred athymic nude mice (Jackson Laboratory, Bar Harbor, ME, USA) were inoculated bilaterally with 0.2 mL of a 1:1 mixture of 10^7 PC3-CXCR4 cells in PBS and Matrigel (Corning, Tewksbury, MA, USA) subcutaneously in the left shoulder and 0.2 mL of a 1:1 mixture of 10^7 PC3-WT cells in PBS and Matrigel subcutaneously in the right shoulder. Imaging and biodistribution studies were performed three weeks post-implantation, when tumors were approximately 100–300 mm^3.
(§3) For the biodistribution studies, tumor-bearing animals (n = 5/compound/time point) were injected intravenously with 50–100 μL of a 9% v/v EtOH/saline solution containing approximately 1.1 MBq of the radioligand. […] The mice were euthanized at 1 or 2 h p.i. and tissues including blood, heart, lungs, liver, small intestine, large intestine, stomach (with contents), spleen, pancreas, kidneys, muscle, bone, PC3-WT tumors, PC3-CXCR4 tumors, and tail were collected. All organs were weighed and placed in test tubes for counting in a Wizard^2 Gamma Counter (PerkinElmer, Waltham, MA, USA). For comparison, 1% injected activity standards were prepared and counted along with the tissue samples. The tails were counted to correct for any dose extravasation. Activity in each tissue was corrected for decay and for injected activity and expressed as percent injected dose per gram of tissue (%ID/g) ± standard error.

[5] = as above; format: in vivo, BALB/c mice; settings: 1 h p.i.
Method: as §2, §3

[6] = blocked by co-injection of 5 mg/kg AMD-3100

Structure (SMILES): FCCn1cc(-c2cc(CN3CCCNCCNCCCNCC3)ccc2CN2CCCNCCNCCCNCC2)nn1 [RPS-545]
- Kd (CXCR4 [1]): 515 ± 68 nM
- Hill Slope, Saturation Binding Experiment (CXCR4 [1]): 2.01 ± 0.22
- IC50 vs [^18F]RPS-544 compared with IC50 vs [^68Ga]Pentixafor (CXCR4 [2]): not significantly different
- Cell-Associated Activity (PC3-CXCR4 cells): 0.8 ± 0.1 %IA
- IC50 (CXCR4 [3]): 398 ± 41 nM
- Hill Slope, Competitive Binding Experiment (CXCR4 [3]): 1.75 ± 0.33

Structure (SMILES): FCCn1cc(-c2cc(CNCc3ccccn3)ccc2CN2CCCNCCNCCCNCC2)nn1 [RPS-533]
- Kd (CXCR4 [1]): 366 ± 70 nM
- Hill Slope, Saturation Binding Experiment (CXCR4 [1]): 1.12 ± 0.05
- Bone tissue activity [4]: 1.22±0.03 %ID/g
- Heart tissue activity [4]: 0.57±0.05 %ID/g
- Kidneys tissue activity [4]: 12.17 ± 0.78 %ID/g
- Large Intestine tissue activity [4]: 0.23±0.02 %ID/g
- Liver tissue activity [4]: 3.69±0.21 %ID/g
- Lungs tissue activity [4]: 0.60±0.08 %ID/g
- Muscle tissue activity [4]: 0.67±0.08 %ID/g
- PC3-CXCR4 Tumor Uptake [4]: 1.93 ± 0.18 %ID/g
- PC3-CXCR4 Tumor-to-Tissue Ratio Blood [4]: 6.9 ± 0.2
- PC3-CXCR4 Tumor-to-Tissue Ratio Bone [4]: 1.4 ± 0.7
- PC3-CXCR4 Tumor-to-Tissue Ratio Kidneys [4]: 0.2 ± 0.1
- PC3-CXCR4 Tumor-to-Tissue Ratio Liver [4]: 0.5 ± 0.1
- PC3-CXCR4 Tumor-to-Tissue Ratio Lungs [4]: 3.3 ± 0.4
- PC3-CXCR4 Tumor-to-Tissue Ratio Muscle [4]: 2.2 ± 0.3
- PC3-CXCR4 Tumor-to-Tissue Ratio PC3-WT [4]: 2.0 ± 0.4
- PC3-WT tumor activity [4]: 0.91±0.19 %ID/g
- Pancreas tissue activity [4]: 0.44±0.02 %ID/g
- Small Intestine tissue activity [4]: 2.19±0.05 %ID/g
- Spleen tissue activity [4]: 0.52±0.02 %ID/g
- Stomach tissue activity [4]: 0.17±0.04 %ID/g
- Blood tissue activity [5]: 0.30±0.06 %ID/g
- IC50 vs [^18F]RPS-544 compared with IC50 vs [^68Ga]Pentixafor (CXCR4 [2]): not significantly different
- Cell-Associated Activity (PC3-CXCR4 cells): 2.1 ± 0.4 %IA
- IC50 (CXCR4 [3]): 356 ± 100 nM
- Hill Slope, Competitive Binding Experiment (CXCR4 [3]): 1.07 ± 0.36

Structure (SMILES): FCCn1cc(CCNCc2ccc(CN3CCCNCCNCCCNCC3)cc2)nn1 [RPS-552]
- Kd (CXCR4 [1]): 314 ± 48 nM
- Hill Slope, Saturation Binding Experiment (CXCR4 [1]): 0.93 ± 0.14
- Bone tissue activity [4]: 0.64±0.14 %ID/g
- Heart tissue activity [4]: 0.13±0.03 %ID/g
- Kidneys tissue activity [4]: 7.23 ± 2.66 %ID/g
- Large Intestine tissue activity [4]: 0.43±0.10 %ID/g
- Liver tissue activity [4]: 4.36±0.24 %ID/g
- Lungs tissue activity [4]: 0.50±0.04 %ID/g
- Muscle tissue activity [4]: 0.15±0.04 %ID/g
- PC3-CXCR4 Tumor Uptake [4]: 2.52 ± 0.11 %ID/g
- PC3-CXCR4 Tumor-to-Tissue Ratio Blood [4]: 11.9 ± 0.1
- PC3-CXCR4 Tumor-to-Tissue Ratio Bone [4]: 4.0 ± 0.2
- PC3-CXCR4 Tumor-to-Tissue Ratio Kidneys [4]: 0.3 ± 0.3
- PC3-CXCR4 Tumor-to-Tissue Ratio Liver [4]: 0.6 ± 0.1
- PC3-CXCR4 Tumor-to-Tissue Ratio Lungs [4]: 5.0 ± 0.1
- PC3-CXCR4 Tumor-to-Tissue Ratio Muscle [4]: 16.7 ± 0.1
- PC3-CXCR4 Tumor-to-Tissue Ratio PC3-WT [4]: 2.5 ± 0.3
- PC3-WT tumor activity [4]: 1.00±0.23 %ID/g
- Pancreas tissue activity [4]: 0.26±0.05 %ID/g
- Small Intestine tissue activity [4]: 0.54±0.06 %ID/g
- Spleen tissue activity [4]: 0.92±0.08 %ID/g
- Stomach tissue activity [4]: 0.14±0.07 %ID/g
- Bone tissue activity [4, 6]: 0.31±0.07 %ID/g
- Heart tissue activity [4, 6]: 0.18±0.08 %ID/g
- Kidneys tissue activity [4, 6]: 4.41±1.01 %ID/g
- Large Intestine tissue activity [4, 6]: 0.22±0.03 %ID/g
- Liver tissue activity [4, 6]: 3.15±0.70 %ID/g
- Lungs tissue activity [4, 6]: 0.49±0.09 %ID/g
- Muscle tissue activity [4, 6]: 0.45±0.67 %ID/g
- PC3-CXCR4 tumor activity [4, 6]: 1.20±0.43 %ID/g
- PC3-WT tumor activity [4, 6]: 0.85±0.21 %ID/g
- Pancreas tissue activity [4, 6]: 0.25±0.04 %ID/g
- Small Intestine tissue activity [4, 6]: 0.80±0.11 %ID/g
- Spleen tissue activity [4, 6]: 0.70±0.11 %ID/g
- Stomach tissue activity [4, 6]: 0.20±0.20 %ID/g
- Blood tissue activity [5]: 0.21±0.07 %ID/g
- Blood tissue activity [5, 6]: 0.27±0.06 %ID/g
- Cell-Associated Activity (PC3-CXCR4 cells): 3.5 ± 0.1 %IA
- IC50 (CXCR4 [3]): 515 ± 68 nM
- Hill Slope, Competitive Binding Experiment (CXCR4 [3]): 1.18 ± 0.07
